Assays:
Bromus diandrus = test: Field plot evaluation of density reduction in Bromus diandrus (great bromegrass); format: in vivo; conditions: 28 g/ha, weed count vs untreated plot
Protocol: (§1) In the following examples, synergism is determined by the Colby (Colby, S. R., Weeds, 1967(15), p. 20-22) method, i.e. the expected (or predicted) response of the combination is calculated by taking the product of the observed response for each individual component of the combination when applied alone divided by 100 and subtracting this value from the sum of the observed response for each component when applied alone. Synergism of the combination is then determined by comparing the observed response of the combination to the expected (or predicted) response as calculated from the observed responses of each individual component alone. If the observed response of the combination is greater than the expected (or predicted) response then the combination is said to be synergistic.
All trials employ standard accepted weed science procedures. Applications are made to 2×10M plots with a propane gas-powered small plot boomspray applicator. Test design is a modified randomized complete block design with four replications. Applications are made at 2-6 weeks after the imidazolinone-tolerant crop is sown. […]
Using essentially the same procedure and test solutions described in Example 1, the following evaluation is carried out. In this evaluation, density reduction is measured by counting the Bromus diandrus weeds in the treated plots and comparing the count to that of the untreated plot. […]

Hordeum leporinum = test: Field plot evaluation of biomass reduction and seedhead suppression in Hordeum leporinum (wild barley), post-emergence in an imidazolinone-tolerant crop; format: in vivo; conditions: 28 g/ha; for Seed Head Red. Observed: seedhead count vs untreated plot; for Bio. Red. Observed: visual rating vs untreated plots, average of 4 replicates
Protocol: as §1
All trials employ standard accepted weed science procedures. Applications are made to 2×10M plots with a propane gas-powered small plot boomspray applicator. Test design is a modified randomized complete block design with four replications. Applications are made at 2-6 weeks after the imidazolinone-tolerant crop is sown.
In this evaluation biomass reduction is determined by visually rating the numbers and bulk of Hordeum leporinum in the treatment plots as compared to the numbers and bulk in the untreated plots. Seedhead suppression is measured by counting the seedheads of Hordeum leporinum in each of the treated plots and comparing to the number of seedheads in the untreated plot.
The test solutions are prepared by tank-mixing commercial formulations. All treatments also contain 0.5% v/v of an ethoxylated vegetable oil.
The treated plots are examined at intervals during the growing season and rated for percent biomass reduction and percent seedhead suppression. The data shown are an average of the replicates for that treatment. The Colby method of analysis is used to determine the resultant biological effect of the combination treatment as compared to the biological effect of each component when applied alone.

| SMILES | Density Red. Obs. (Bromus diandrus) [%] | Seed Head Red. Observed (Hordeum leporinum) [%] | Bio. Red. Observed (Hordeum leporinum) [%] |
| --- | --- | --- | --- |
| Cc1cnc(C2=NC(C)(C(C)C)C(=O)N2)c(C(=O)O)c1 (stereo not drawn) [imazapic, 2-(4-isopropyl-4-methyl-5-oxo-2-imidazolin-2-yl)-5-methylnicotinic acid] | −17.29 | 5.55 | 30 |
| COCc1cnc(C2=NC(C)(C(C)C)C(=O)N2)c(C(=O)O)c1 (stereo not drawn) [imazamox, 2-(4-isopropyl-4-methyl-5-oxo-2-imidazolin-2-yl)-5-(methoxymethyl)-nicotinic acid] | 98.96 | 76.33 | 80 |
